Data as given in patent publication US12534477B2, “Compound having KHK inhibitory effect” (HANGZHOU ZHONGMEIHUADONG PHARMACEUTICAL CO., LTD., priority 2019, dated 2026).
pIC50: −log10 of the molar value. Where two headings read alike, the source gives them in different places.

Experiments:
[1] = Liver-blood ratio, tissue distribution in rats; type: in vivo, SD rats; conditions: PO 1 mpk
Procedure: Tissue distribution of compounds in SD rats was tested.
In the experiment, candidate compounds were formulated as clear solutions and administered to rats in a single oral dose (PO, 1 mpk). The vehicle for oral administration was a certain proportion of methylcellulose and Tween 80 in water. Whole blood was collected at a certain time and plasma was prepared, and tissues were collected at the corresponding time and prepared into tissue homogenates. Drug concentration was analyzed by LC-MS/MS, and pharmacokinetic parameters were calculated by Phoenix WinNonlin software.

[2] = Pharmacokinetic evaluation in SD rats; type: in vivo; conditions: rat, plasma; for clearance: 1 mg/kg, read-out: Clearance rate; for clearance / bioavailability: IV 1 mpk; for bioavailability / AUC: PO 3 mpk; for bioavailability: read-out: Bioavailability F; for AUC: read-out: Integral concentration AUC for PO; for half-life: IV 1 mpk and PO 3 mpk study, read-out: Half-life T1/2 (converted)
Procedure: In vivo pharmacokinetics of compounds in SD rats were tested.
Pharmacokinetic profiles in rodents following intravenous and oral administration of the compounds were tested by standard protocols. In the experiment, candidate compounds were formulated as clear solutions or homogeneous suspensions, and were administered to rats by single intravenous injection (IV, 1 mpk) and oral administration (PO, 3 mpk). The vehicle for intravenous injection was a certain proportion of PEG400 in water, and the vehicle for oral administration was a certain proportion of methylcellulose and Tween 80 in water. Whole blood was collected, and plasma was prepared. Drug concentration was analyzed by LC-MS/MS, and pharmacokinetic parameters were calculated by Phoenix WinNonlin software.

CYP2D6 = CYP2D6 (Homo sapiens (Human), UniProt P10635); assay: Inhibitory activity on human liver microsomal cytochrome P450 isozymes; type: in vitro ADME; conditions: human liver microsomes
Procedure: (§1) The inhibitory effect of test compounds on the activity of human hepatic microsomal cytochrome P450 isozymes (CYP1A2, CYP2C9, CYP2C19, CYP2D6 and CYP3A4) was determined.
(§2) First, the test compound (10 mM) was diluted in gradient to prepare working solutions (100×final concentration) with working solution concentrations: 5, 1.5, 0.5, 0.15, 0.05, 0.015, 0.005 mM, respectively, and at the same time, working solutions of each positive inhibitor of P450 isozymes (CYP1A2, CYP2C9, CYP2C19, CYP2D6 and CYP3A4) and its specific substrate mixture were prepared. Human liver microsomes frozen in a −80° C. refrigerator were thawed on ice, and diluted with PB (phosphate buffer) after all the human liver microsomes were dissolved, to prepare a working solution at a certain concentration (0.253 mg/mL). 20 μl substrate mixture was added to the reaction plate (20 μL PB was added to the Blank wells) while 158 μL human liver microsome working solution was added to the reaction plate which was placed on ice for later use. At this time, 2 μL of each concentration of the test compound (N=1) and the specific inhibitor (N=2) were added to the corresponding wells, and the corresponding organic solvents were added to the groups without inhibitors (the test compound or the positive inhibitor) as control samples (1:1 DMSO:MeOH for the test compound control sample, and 1:9 DMSO:MeOH for the positive control sample). After pre-incubation in 37° C. water bath for 10 min, 20 μL coenzyme factor (NADPH) solution was added to the reaction plate, and incubated in 37° C. water bath for 10 min. 400 μL cold acetonitrile solution (200 ng/mL Tolbutamide and Labetalol as the internal standard) was added to stop the reaction. The reaction plate was placed on a shaker and shaken for 10 min. The mixture was centrifuged at 4,000 rpm for 20 min, and 200 μl the supernatant was added to 100 μL water for sample dilution. Finally, the plate was sealed, shaken, mixed well and detected by LC/MS/MS.

CYP2C19 = CYP2C19 (Homo sapiens (Human), UniProt P33261); assay: as above; type: in vitro ADME; conditions: human liver microsomes
Procedure: as §1, §2

CYP3A4 = CYP3A4 (Homo sapiens (Human), UniProt P08684); assay: as above; type: in vitro ADME; conditions: human liver microsomes
Procedure: as §1, §2

CYP2C9 = CYP2C9 (Homo sapiens (Human), UniProt P11712); assay: as above; type: in vitro ADME; conditions: human liver microsomes
Procedure: as §1, §2

[3] = molecular target: Recombinant Human Ketohexokinase (KHK) (Homo sapiens (Human), UniProt P50053); assay: Ketohexokinase assay (KHK assay), ADP-Glo; type: biochemical
Procedure: • 1. EnVision multilabel reader, Perkin Elmer; • 2. OptiPlate 384-well microplate, Perkin Elmer, Cat. No. 6007290; • 3. Recombinant Human Ketohexokinase (KHK), R&D Cat. No.: 8177-HK-020, Lot No.: DDFK0117092; • 4. Fructose (D(−)-Fructose), SCR Cat. No.: 36003034; and • 5. ADP-Glo kinase assay kit, Promega_Cat. No.: V9101.
1. preparation of Dilution Buffer containing 50 mM hydroxyethylpiperazine […] (Hepes), 140 mM KCl, 3.5 mM MgCl2, and 0.01% bovine serum albumin (BSA), pH 7.4.
2. A working solution of ketohexokinase at 2.5 times concentration was prepared with Dilution Buffer, with 50 nM ketohexokinase and 12.5 mM fructose.
3. A working solution of adenosine triphosphate (ATP) at 2.5 times concentration was prepared with Dilution Buffer, with a concentration of 250 μM.
4. Each compound was diluted starting at a concentration of 500 μM, 3-fold diluted for 9 concentration points. The final concentration of the compound in the reaction system started from 10 μM and the final concentration of dimethyl sulfoxide (DMSO) was 2%.
5. A 96-well plate was prepared as a reaction plate, and was incubated at room temperature for 5 min after adding 6 μL ketohexokinase working solution at 2.5 times concentration to each well and further adding 3 μL compound working solution to each well.
6. The first well of each row was a positive control for a compound, i.e. the same volume of the buffer was added to replace the compound and ketohexokinase. The last well was a negative control for the compound, i.e. the same volume of Dilution Buffer was added instead of the compound.
7. 6 μL ATP working solution was added to each well in a 96-well reaction plate to initiate the kinase reaction. The kinase reaction was incubated in a constant temperature heater at 28° C. for 1 h.
1. A384 plate was prepared as a detection plate, and firstly 5 μL ADP-Glo reagent was added.
2. 5 μL kinase reaction mixture from the reaction plate was added to each well and incubated in a constant temperature heater at 28° C. for 30 min.
3. 10 μL kinase detection reagent was added to each well and incubated in a constant temperature heater at 28° C. for 30 min.
4. The detection plate was placed in an EnVision multilabel reader to read the chemiluminescent signal.

CYP1A2 = CYP1A2 (Homo sapiens (Human), UniProt P05177); type: in vitro ADME; conditions: microsomes
Procedure: as §1, §2

[4] = test system: fructose metabolism in mice; assay: Acute fructose feeding experiment in mice; type: in vivo; conditions: compound 30 mpk, oral fructose 1 g/kg
Procedure: The effect of test compounds on the fructose content in mice with high fructose intake was investigated.
All animals were acclimated for one week in an animal house, fed with normal chow and fasted for 16 hours before being given fructose.
1) The experiment began at −0.5 hr. A control group was given a certain volume of vehicle (a certain proportion of methylcellulose and Tween 80 in water), and an experimental group was given a certain dose of a solution of the compound (the administered volume was consistent with the vehicle).
2) 0.5 hour later and before administration of a fructose solution, a blood sample was collected at 0 hr, followed by oral administration of 1 g/kg of an aqueous fructose solution.
3) After the administration of fructose, blood samples were collected from saphenous vein of mice at 0.25, 0.5, 1, 2, 3 and 8 hr, and fructose concentration was analyzed by LC-MS/MS.

[5] = SD, rat, liver, 1 mg/kg, 1.5 h, read-out: Liver tissue concentration
[6] = SD, rat, liver, 1 mg/kg, 2.0 h, read-out: Liver tissue concentration
[7] = SD, rat, liver, 1 mg/kg, 6.0 h, read-out: Liver tissue concentration
[8] = SD, rat, liver/plasma, 1 mg/kg, 1.5 h, read-out: Liver-blood ratio
[9] = SD, rat, liver/plasma, 1 mg/kg, 2.0 h, read-out: Liver-blood ratio
[10] = SD, rat, liver/plasma, 1 mg/kg, 6.0 h, read-out: Liver-blood ratio
[11] = SD, rat, plasma, 1 mg/kg, 1.5 h, read-out: Plasma concentration
[12] = SD, rat, plasma, 1 mg/kg, 2.0 h, read-out: Plasma concentration
[13] = SD, rat, plasma, 1 mg/kg, 6.0 h, read-out: Plasma concentration
[14] = 1.5 h, read-out: Brain tissue concentration
[15] = 1.5 h, read-out: Liver tissue concentration
[16] = 2.0 h, read-out: Brain tissue concentration
[17] = 2.0 h, read-out: Liver tissue concentration
[18] = 6.0 h, read-out: Liver tissue concentration

Chain of CYP3A4 (P08684 whole entry): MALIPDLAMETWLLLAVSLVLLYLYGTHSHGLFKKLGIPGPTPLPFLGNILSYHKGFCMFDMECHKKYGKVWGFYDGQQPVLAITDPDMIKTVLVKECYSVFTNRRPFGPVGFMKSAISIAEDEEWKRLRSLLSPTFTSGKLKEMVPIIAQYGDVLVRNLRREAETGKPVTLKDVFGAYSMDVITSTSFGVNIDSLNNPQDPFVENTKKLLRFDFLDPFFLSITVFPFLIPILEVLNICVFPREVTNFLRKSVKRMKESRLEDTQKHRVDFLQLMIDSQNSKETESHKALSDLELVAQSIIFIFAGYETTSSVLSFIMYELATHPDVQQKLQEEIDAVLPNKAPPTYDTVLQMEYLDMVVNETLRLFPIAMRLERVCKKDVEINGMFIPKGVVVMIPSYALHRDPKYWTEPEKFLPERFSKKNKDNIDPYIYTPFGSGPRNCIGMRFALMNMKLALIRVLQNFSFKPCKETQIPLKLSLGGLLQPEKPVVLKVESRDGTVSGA
Chain of CYP1A2 (P05177 whole entry): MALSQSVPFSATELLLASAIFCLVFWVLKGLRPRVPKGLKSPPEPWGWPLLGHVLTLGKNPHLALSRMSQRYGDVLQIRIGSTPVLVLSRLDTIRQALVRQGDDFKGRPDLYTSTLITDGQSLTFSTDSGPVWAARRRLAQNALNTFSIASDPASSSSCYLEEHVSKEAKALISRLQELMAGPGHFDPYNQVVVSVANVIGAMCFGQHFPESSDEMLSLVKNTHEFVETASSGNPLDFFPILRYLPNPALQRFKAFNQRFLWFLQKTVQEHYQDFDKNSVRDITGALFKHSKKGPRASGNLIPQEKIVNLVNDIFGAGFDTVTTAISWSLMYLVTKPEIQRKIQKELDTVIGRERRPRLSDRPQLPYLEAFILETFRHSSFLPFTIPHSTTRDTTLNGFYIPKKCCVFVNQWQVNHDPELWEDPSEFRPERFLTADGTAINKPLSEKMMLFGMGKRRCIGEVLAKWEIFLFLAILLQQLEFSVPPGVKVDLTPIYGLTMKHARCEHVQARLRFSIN
Chain of CYP2C19 (P33261 whole entry): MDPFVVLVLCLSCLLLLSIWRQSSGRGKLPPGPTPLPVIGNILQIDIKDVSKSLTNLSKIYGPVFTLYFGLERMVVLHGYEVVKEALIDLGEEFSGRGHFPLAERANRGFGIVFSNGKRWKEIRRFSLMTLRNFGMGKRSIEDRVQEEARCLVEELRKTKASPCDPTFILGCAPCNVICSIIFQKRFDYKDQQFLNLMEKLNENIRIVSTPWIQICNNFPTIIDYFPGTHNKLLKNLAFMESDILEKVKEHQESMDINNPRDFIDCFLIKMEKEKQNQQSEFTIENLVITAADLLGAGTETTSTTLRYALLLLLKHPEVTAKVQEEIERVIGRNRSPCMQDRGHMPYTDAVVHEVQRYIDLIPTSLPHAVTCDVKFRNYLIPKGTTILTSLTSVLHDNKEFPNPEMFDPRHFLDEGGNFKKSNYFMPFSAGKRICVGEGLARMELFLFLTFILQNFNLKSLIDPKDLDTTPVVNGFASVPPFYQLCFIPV
Chain of CYP2C9 (P11712 whole entry): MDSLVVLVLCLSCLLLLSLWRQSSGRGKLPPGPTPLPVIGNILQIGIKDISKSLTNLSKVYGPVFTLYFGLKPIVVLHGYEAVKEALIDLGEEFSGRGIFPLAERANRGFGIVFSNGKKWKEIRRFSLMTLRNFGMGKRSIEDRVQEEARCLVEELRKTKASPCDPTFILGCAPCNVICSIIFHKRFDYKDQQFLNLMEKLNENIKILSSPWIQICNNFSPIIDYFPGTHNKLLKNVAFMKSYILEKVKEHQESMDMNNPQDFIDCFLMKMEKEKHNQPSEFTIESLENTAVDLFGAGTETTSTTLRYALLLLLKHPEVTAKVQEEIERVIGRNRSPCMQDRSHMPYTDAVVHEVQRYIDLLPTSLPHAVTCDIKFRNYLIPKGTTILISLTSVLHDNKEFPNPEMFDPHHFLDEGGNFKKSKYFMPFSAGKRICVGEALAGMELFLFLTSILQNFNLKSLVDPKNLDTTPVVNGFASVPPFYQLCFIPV
Chain of CYP2D6 (P10635 whole entry): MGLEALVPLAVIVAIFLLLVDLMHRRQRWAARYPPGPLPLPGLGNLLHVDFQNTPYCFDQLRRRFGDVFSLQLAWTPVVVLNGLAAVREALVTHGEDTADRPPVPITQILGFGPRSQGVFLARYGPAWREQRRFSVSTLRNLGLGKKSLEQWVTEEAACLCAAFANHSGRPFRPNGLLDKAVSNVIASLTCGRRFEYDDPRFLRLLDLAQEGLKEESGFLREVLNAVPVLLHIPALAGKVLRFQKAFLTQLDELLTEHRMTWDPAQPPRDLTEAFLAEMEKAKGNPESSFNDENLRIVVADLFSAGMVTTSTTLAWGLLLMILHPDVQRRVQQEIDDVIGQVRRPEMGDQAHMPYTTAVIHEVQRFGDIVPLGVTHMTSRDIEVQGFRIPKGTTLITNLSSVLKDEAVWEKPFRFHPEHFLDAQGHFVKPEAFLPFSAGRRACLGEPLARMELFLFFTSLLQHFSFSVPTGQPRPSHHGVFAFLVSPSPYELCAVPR
Chain of Recombinant Human Ketohexokinase (KHK) (P50053 whole entry): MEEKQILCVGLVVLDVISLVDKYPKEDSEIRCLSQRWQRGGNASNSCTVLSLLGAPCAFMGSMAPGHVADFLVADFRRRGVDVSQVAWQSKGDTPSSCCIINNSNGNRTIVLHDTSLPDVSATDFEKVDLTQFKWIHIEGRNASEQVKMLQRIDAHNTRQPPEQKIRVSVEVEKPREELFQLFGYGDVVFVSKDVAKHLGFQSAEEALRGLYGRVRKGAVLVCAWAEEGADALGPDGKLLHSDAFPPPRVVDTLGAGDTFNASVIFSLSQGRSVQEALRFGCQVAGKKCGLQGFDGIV

Row | SMILES | concentration at 1.5 h [1, 5] [nM] | concentration at 2 h [1, 6] [nM] | concentration at 6 h [1, 7] [nM] | Kp at 1.5 h [1, 8] | Kp at 2 h [1, 9] | Kp at 6 h [1, 10] | concentration at 1.5 h [1, 11] [nM] | concentration at 2 h [1, 12] [nM] | concentration at 6 h [1, 13] [nM] | clearance [2] [mL/min/kg] | bioavailability ([2]; 3 mg/kg) [%] | AUC ([2]; 3 mg/kg) [µM·h] | half-life [2] [h] | pIC50 (CYP2D6) | pIC50 (CYP2C19) | pIC50 (CYP3A4) | pIC50 (CYP2C9) | pIC50 [3] | pIC50 (CYP1A2; human, 10 min) | AUC of integral fructose concentration for dosed group [4] [nM·h] | also measured
1 | C[C@H]1CCN1c1nc(Nc2ccc(CC(=O)O)cc2)c2ccsc2n1 [WX006] | 2420 | 2860 | 2180 | 1.2 | 0.92 | 1.25 | 2010 | 3100 | 1780 | 1.05 | 44 | 39.5 | 2.63 | < 4.30 | < 4.30 | < 4.30 | < 4.30 | 7.60 | < 4.30 |  | 
2 | C[C@H]1CCN1c1nc(N2C[C@@H]3[C@@H](CC(=O)O)[C@@H]3C2)c2ncsc2n1 [WX001] | 2440 | 4270 | 1790 | 0.491 | 0.469 | 0.549 | 4880 | 9090 | 3320 | 1.04 | 158 | 163 | 3.12 | < 4.30 | < 4.30 | < 4.30 | < 4.30 | 6.74 | < 4.30 |  | concentration at 1.5 h ([1]; SD, rat, brain, 1 mg/kg, 1.5 h, read-out: Brain tissue concentration): 72.8 nM; concentration at 2 h ([1]; SD, rat, brain, 1 mg/kg, 2.0 h, read-out: Brain tissue concentration): 162 nM; concentration at 6 h ([1]; SD, rat, brain, 1 mg/kg, 6.0 h, read-out: Brain tissue concentration): 91.5 nM; Kp at 1.5 h ([1]; SD, rat, brain/plasma, 1 mg/kg, 1.5 h, read-out: Brain-blood ratio): 0.015; Kp at 2 h ([1]; SD, rat, brain/plasma, 1 mg/kg, 2.0 h, read-out: Brain-blood ratio): 0.017; Kp at 6 h ([1]; SD, rat, brain/plasma, 1 mg/kg, 6.0 h, read-out: Brain-blood ratio): 0.02
3 | C[C@H]1CCN1c1nc(N2CC3(C[C@@H]3C(=O)O)C2)c2c(n1)C(F)(F)CC2 [WX042] |  |  |  |  |  |  |  |  |  | 8.13 |  | 20.5 | 2.27 | < 4.30 | < 4.30 | < 4.30 | < 4.30 |  |  | 3400 | AUC of integral fructose concentration of dosed group/AUC of Integral fructose concentration of control group [4]: 12.9; Brain-blood ratio ([1]; 1.5 h): 0.0375; Liver-blood ratio ([1]; 1.5 h): 9.53; Plasma concentration ([1]; 1.5 h): 3314 nM; concentration at 6 h [1, 14]: 76.2 nM; concentration at 1.5 h [1, 15]: 19900 nM; Brain-blood ratio ([1]; 2.0 h): 0.0211; Liver-blood ratio ([1]; 2.0 h): 6.78; Plasma concentration ([1]; 2.0 h): 3045 nM; concentration at 6 h [1, 16]: 62.2 nM; concentration at 1.5 h [1, 17]: 20600 nM; Liver-blood ratio ([1]; 6.0 h): 26.2; Plasma concentration ([1]; 6.0 h): 259 nM; concentration at 1.5 h [1, 18]: 6710 nM; bioavailability [2]: 176%; pIC50 (CYP1A2): < 4.30
4 | C[C@H]1CCN1c1nc(N2CC3(C[C@H]3C(=O)O)C2)c2c(n1)C(F)(F)CC2 [WX043] |  |  |  |  |  |  |  |  |  | 5.37 |  | 12 | 5.83 | < 4.30 | < 4.30 | < 4.30 | < 4.30 |  |  | 3504 | AUC of integral fructose concentration of dosed group/AUC of Integral fructose concentration of control group [4]: 13.3; Brain-blood ratio ([1]; 1.5 h): 0.016; Liver-blood ratio ([1]; 1.5 h): 20.0; Plasma concentration ([1]; 1.5 h): 2025 nM; concentration at 6 h [1, 14]: 30.6 nM; concentration at 1.5 h [1, 15]: 38250 nM; Brain-blood ratio ([1]; 2.0 h): 0.014; Liver-blood ratio ([1]; 2.0 h): 30.0; Plasma concentration ([1]; 2.0 h): 916 nM; concentration at 6 h [1, 16]: 13.1 nM; concentration at 1.5 h [1, 17]: 27800 nM; Liver-blood ratio ([1]; 6.0 h): 81.5; Plasma concentration ([1]; 6.0 h): 246 nM; concentration at 1.5 h [1, 18]: 19800 nM; bioavailability [2]: 70%; pIC50 (CYP1A2): < 4.30
